Reference: US20120277109A1, “PROXIMITY-MEDIATED ASSAYS FOR DETECTING ONCOGENIC FUSION PROTEINS” (Prometheus Laboratories Inc., priority 2009, published 2012)
Where two headings read alike, the source gives them in different places.

What was measured:
[1] = system: patients with chronic myelogenous leukemia (CML); details: cited from earlier work
[2] = system: BCR-ABL substrate CRKL; experiment: Sandwich ELISA of total and activated (phosphorylated) CRKL in cancer cell lines after growth factor treatment; type: cell-based, human
[3] = 400 mg/day imatinib, after 7 years

Cc1ccc(NC(=O)c2ccc(CN3CCN(C)CC3)cc2)cc1Nc1nccc(-c2cccnc2)n1 [imatinib]
complete cytogenetic response (CCyR) ([1]; 400 mg/day imatinib, % of patients): 70-80%
even free survival rate [1, 3]: 81%
overall survival rate [1, 3]: 90%
relapse rate ([1]; 400 mg/day imatinib, in 5 years): about 30%
loss of CCyR rate ([1]; 400 mg/day imatinib, in the first 3 years): 4 to 7 %/yr
loss of CCyR rate ([1]; 400 mg/day imatinib, thereafter (after first 3 years)): 1 to 2 %/yr
toxicity ([1]; 800 mg/day imatinib compared with 400 mg/day): more toxic
CCyR ([1]; 800 mg/day imatinib): 95%
relapse rate ([1]; 800 mg/day imatinib): 5%
patients who do not achieve durable complete cytogenetic responses ([1]; first line therapy, newly diagnosed patients with CML): 20-25%

Cc1cn(-c2cc(NC(=O)c3ccc(C)c(Nc4nccc(-c5cccnc5)n4)c3)cc(C(F)(F)F)c2)cn1 [nilotinib]
toxicity ([1]; nilotinib compared with imatinib): more toxic than imatinib

epidermal growth factor [EGF, stimulatory growth factor]
CRKL activation (i.e., phosphorylation) upon treatment ([2]; A431 cells): activated
CRKL activation (i.e., phosphorylation) upon treatment ([2]; T47D cells): not activated

heregulin
CRKL activation (i.e., phosphorylation) upon treatment ([2]; MCF-7 cells): activated (i.e., phosphorylated) at low levels
CRKL activation (i.e., phosphorylation) upon treatment ([2]; T47D cells): activated (i.e., phosphorylated) at low levels
